We go through eleven molecules from patent US11549134B2, “Modified amadoriase and method for producing the same, agent for improving surfactant resistance of amadoriase and composition for measuring HbA1c using the same” (Kikkoman Corporation, priority 2013, dated 2023).

The subject of test [1] is CFP-T7. The test can be described thus: Surfactant resistance of amadoriase in presence of buffering agents. The class given is biochemical, genus Coniochaeta. The following applies: for CFP-T7 Residual Activity (%): 0.01% CTAC, purified CFP-T7; for amadoriase stabilizing effect of the buffer (in words): CFP-T7 in the presence of surfactant. The protocol:
In the above surfactant resistance measuring method, the residual activity of an amadoriase is measured by using various buffers in place of a 30 mM MES/21 mM Tris buffer solution. In this manner, the contribution of the buffer to the amadoriase residual activity can be evaluated. For example, in place of the 30 mM MES/21 mM Tris buffer solution (pH 6.5), e.g., a phosphate buffer solution (pH 7.0), a citrate buffer solution (pH 6.0), a HEPES buffer solution (pH 7.0) or an ACES buffer solution (pH 7.0) can be used. Other conditions and procedure can be the same as in the above surfactant resistance measuring method.
It was studied whether the surfactant resistance of an amadoriase is enhanced or not when a buffering agent other than a 30 mM MES/21 mM Tris buffering agent (pH 6.5) was used. Using CFP-T7 purified as described above as a sample, the final concentration of CTAC was set at 0.01% to evaluate the surfactant resistance of CFP-T7 according to the measurement method for surfactant resistance in Example 1 in the presence of any of various buffering agents, specifically a phosphate buffering agent containing phosphoric acid and potassium phosphate (pH 7.0), a citrate buffering agent containing citric acid and sodium citrate (pH 6.0), an MES buffering agent containing MES and it sodium salt (pH 7.0), an HEPES buffering agent containing HEPES and its sodium salt (pH 7.0), and an ACES buffering agent containing ACES and its sodium salt (pH 7.0), in place of the 30 mM MES/21 mM Tris buffering agent (pH 6.5).

Test [2] relates to CFP-T7. The test can be described thus: Surfactant resistance of amadoriase during addition of each stabilizer (CFP-T7). The following applies: 500 mM HEPES (pH 7.0), 0.01% CTAC. The class given is biochemical, genus Coniochaeta. The protocol: In the above surfactant resistance measuring method, various stabilizers are added and the residual activity of an amadoriase is measured in order to evaluate the effect of the stabilizers. […] The concentration sufficient to provide a buffer capacity to a solution refers to the concentration at which pH is maintained within a predetermined range (for example pH5 to 10, pH6 to 8) without having pH change due to other reagents added to the solution. A concentration insufficient to provide a buffer capacity to a solution refers to the concentration at which pH changes by addition of other reagents to the solution and pH falls outside a particular range. These concentrations vary depending upon the type and amount of other reagents to be added to a solution; however, a person skilled in the art can appropriately determine the concentration by conventional methods. Other conditions and procedure can be the same as in the above surfactant resistance measuring method.
It was studied whether or not the addition of any of various stabilizers enhanced the surfactant resistance of an amadoriase. Phosphoric acid, a tricarboxylic acid (e.g., citric acid), a dicarboxylic acid (e.g., malic acid, maleic acid, citraconic acid, malonic acid, glutaric acid, or tartaric acid), a monpcarboxylic acid (e.g., acetic acid), MES, MOPS, MOPSO, or ammonium sulfate was used as a stabilizer. As a Comparative Example, CHES was used. To prevent change in pH when adding the stabilizer, 500 mM HEPES (pH 7.0) was used as a buffer solution; CFP-T7 purified as described above was used as a sample; the final concentration of CTAC was set at 0.01%; and any of the stabilizers was further added to evaluate the surfactant resistance of CFP-T7 according to the measurement method for surfactant resistance in Example 1. Using a 500 mM HEPES (pH 7.0) buffering agent and CFP-D2 purified as described above as a sample, any of the stabilizers was further added, and the surfactant resistance of CFP-D2 was evaluated according to the measurement method for surfactant resistance in Example 1 although under more harsh surfactant treatment conditions in which the final concentration of CTAC was set at 0.08% and the treatment temperature at 37° C.

The next test concerns PnFX. Description: Surfactant resistance of PnFX during addition of each stabilizer. Particulars: Stabilizer 20 mM; 300 mM HEPES (pH 7.0); 0.04% CTAC. Format: biochemical, Phaeosphaeria nodorum. The protocol: The same stabilizers as those described above were used as stabilizers; 300 mM HEPES (pH 7.0) was used as a buffering agent to prevent a change in pH when the stabilizers was each added; PnFX purified as described above was used as a sample; the final concentration of CTAC was set at 0.04%; and the surfactant resistance of PnFX was evaluated as described above.

The nature of test [3]: Measurement of fructosyl peptide sample (αFVH) under mixing of CTAC, change in absorbance at 751 nm. The class given is biochemical. Particulars: for Amount of Change in Absorbance at Wavelength of 751 nm under Mixing of Each Concentration of CTAC: as in Example 5, Table 7. The protocol: The purified enzyme of CFP-T7 and CFP-D7 obtained in Example 3-2 was used to measure a sample as shown below. The activity values of CFP-T7 and CFP-D7 were determined using (reagent 1) adjusted to pH 7.0 with αFVH at a final concentration of 5 mM as a substrate according to the method for measuring amadoriase activity.
(Reagent 4) αFVH (125 mg) was dissolved in ion-exchanged water, the volume of the solution was fixed to 10 ml, and thereby a 30 mM substrate solution was obtained. In addition, the resultant was diluted by 1/714 with a CTAC solution to provide a 42 μM αFVH/0% to 0.2% CTAC solution.
(Reagent 6) (50 μl) was added to a mixed solution of 135 μl of (reagent 5) warmed at 37° C. for 5 minutes in advance and 25 μl of the sample prepared in (11) above to start reaction, and absorbance at a wavelength of 751 nm after reaction at 37° C. for 5 minutes was measured using an automated analyzer, Bio Majesty JCA-BM1650 (from JEOL Ltd.). Absorbance (reagent blank) at a wavelength of 751 nm measured by a similar operation for (reagent 4) prepared using ion-exchanged water in place of the substrate solution was used as a control to calculate the amount of change in absorbance (difference) when each sample was measured, using the following equation. The final concentration of a colorimetric substrate, DA-64, was 0.15 mM; the final concentration of αFVH in the case of the presence of a substrate was 5 μM; and the length (optical path) of the cell used for absorbance measurement was 1 cm. Amount of change in absorbance=ΔAes−Ae0
The amount of change in absorbance when αFVH/0% to 0.2% CTAC were used as samples was calculated.
The purified preparations of amadoriases obtained as described above were used as samples to measure αFVH under the mixing of CTAC using PnFX and NvFX as in Example 5.

Where [4] appears, read: Buffer Solution 100 mM, pH 7.0 (citrate pH 6.0).

On to `NC(=O)CNCCS(=O)(=O)O` [ACES, N-(2-acetamido)-2-aminoethanesulfonic acid], for which the “CFP-T7 Residual Activity (%)” value is reported as 15.6% with CFP-T7 [1] (Buffer Solution 20 mM, pH 7.0 (citrate pH 6.0)); 16.4% in the test on CFP-T7 [1] (setting [4]); 22.1% with CFP-T7 [1] (Buffer Solution 200 mM, pH 7.0).
Regarding `CC(=O)O` [Acetate, acetic acid], the “CFP-T7 Residual Activity (%)” value with CFP-T7 [2] (Stabilizer 10 mM, Table 9-1) was found to be 8.9%; with CFP-T7 [2] (Stabilizer 20 mM, Table 9-1), 20.7%; in the test on CFP-T7 [2] (Stabilizer 50 mM, Table 9-1) it was 52.4%. Besides, the “PnFX Residual Activity (%)” value in the test on PnFX came out at 42.6%.
For `O=S(=O)(O)CCNC1CCCCC1` [CHES, N-cyclohexyl-2-aminoethane sulfonic acid, reference compound], in the test with CFP-T7 [2] (CFP-T7), the “stabilizing action of the stabilizer (in words)” value is recorded as “did not have any stabilizing action”. Also, in the test with CFP-T7 [2] (Stabilizer 20 mM, Table 9-2), the “CFP-T7 Residual Activity (%)” value was 3.0%.
As for `C/C(=C/C(=O)O)C(=O)O` [Citraconate, citraconic acid], the “CFP-T7 Residual Activity (%)” value in the test on CFP-T7 [2] (Stabilizer 2 mM, Table 9-2) is 18.5%; in the test on CFP-T7 [2] (Stabilizer 10 mM, Table 9-2), 89.1%.
For `O=C(O)CCCC(=O)O` [Glutarate, glutaric acid], in that order: 4.5% and 55.9%.
Regarding `O=S(=O)(O)CCN1CCN(CCO)CC1` [HEPES, 4-2-hydroxyethyl-1-piperazine-ethanesulfonic acid, reference compound], the “CFP-T7 Residual Activity (%)” value is on record as 13.2% with CFP-T7 [1] (Buffer Solution 50 mM, pH 7.0 (citrate pH 6.0)); 13.2% with CFP-T7 [1] (setting [4]); 12.2% in the test on CFP-T7 [1] (Buffer Solution 150 mM, pH 7.0); 9.6% in the test on CFP-T7 [1] (Buffer Solution 300 mM, pH 7.0). The “amadoriase stabilizing effect of the buffer (in words)” value with CFP-T7 [1] is on record as “does not have an amadoriase stabilizing effect”; in the test with CFP-T7 [1] (listed as HEPES buffering agent), “not observed”.
Take `O=S(=O)(O)CC(O)CN1CCOCC1` (centres unmarked) [MOPSO, 2-hydroxy-3-morpholino-propanesulfonic acid]: the “CFP-T7 Residual Activity (%)” value with CFP-T7 [2] (Stabilizer 10 mM, Table 9-2) is on record as 9.0%; in the test with CFP-T7 [2] (Stabilizer 20 mM, Table 9-2), 23.5%.
For `O=C(O)/C=C\C(=O)O` [Maleate, maleic acid], the “CFP-T7 Residual Activity (%)” value was found to be 15.5% in the test on CFP-T7 [2] (Stabilizer 2 mM, Table 9-2) and 81.5% with CFP-T7 [2] (Stabilizer 10 mM, Table 9-2).
In the same order, the values of `O=C(O)CC(=O)O` [Malonate, malonic acid] are 10.8% and 77.3%.
With `O=C(O)C(O)C(O)C(=O)O` (centres unmarked) [Tartrate, tartaric acid], the “CFP-T7 Residual Activity (%)” value in the test on CFP-T7 [2] (Stabilizer 2 mM, Table 9-2) was found to be 5.3%; in the test with CFP-T7 [2] (Stabilizer 10 mM, Table 9-2), 70.0%.

B1: NvFX: ketoamine oxidase derived from Neocosmospora vasinfecta, SEQ ID NO: 38 (protein, listed as Neocosmospora vasinfecta)
chain: MTTPRKETTVLIIGGGGTIGSSTALHLLRAGYTPSNITVLDTYPIPSAQSAGNDLNKIMGIRLRNKVDLQLSLEARDMWRNDALFRPFFHNTGRLDCESSAEGVEGLRREYQKLVEAGVGLEETHEWLDSEEAILEKAPLLQREEIEGWKAIWSEEGGWLAAAKAINAIGEELQRQGVRFGFGGAGSFKRPLFADDGTTCIGVETVDGTQYHADKVVLAAGAWSPALVDLEEQCCSKAWVYAHMQLTPEEAAVYKGCPVVYHGDVGFFFEPNENGVIKVCDEFPGFTRFKQHQPYGAPAPKPVSVPRSHAKHPTDTYPDASEESIKRAVSTFLPRFKDKPLFNRALCWCTDTADSALLICEHPRWKNFILATGDSGHSFKLLPIIGKHVVELVEGRLADDLAEAWRWRPGQGDARKSIRAAPAKDLADMPGWKHDQDSESR
Take B1: the “measurement of αFVH under the mixing of CTAC (in words)” value in test [3] is “αFVH could not accurately be measured”. In addition, the “Amount of Change in Absorbance at Wavelength of 751 nm under Mixing of Each Concentration of CTAC” value in test [3] (Mixing of CTAC 0%) turned out to be 0.118; in test [3] (Mixing of CTAC 0.01%), 0.013; in test [3] (Mixing of CTAC 0.02%), 0.013; in test [3] (Mixing of CTAC 0.04%), 0.007; in test [3] (Mixing of CTAC 0.06%), 0.004; in test [3] (Mixing of CTAC 0.1%) it was 0.003. Further, in test [3] (Mixing of CTAC 0.2%), the “Amount of Change in Absorbance at Wavelength of 751 nm under Mixing of Each Concentration of CTAC” value is 0.001.
